In the experiment the test system is P388 leukemia ip, CD2F1 mice, survival T/C. The experiment is described as follows: NCI In Vivo Anticancer Drug Screen. Data for tumor model P388 Leukemia (intraperitoneal) in CD2F1 (CDF1) mice. The note with it: endpoint: median survival time, higher = longer survival. Put shortly: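 Mice carrying the transplanted tumor received test compound or vehicle. Survival was recorded in each group, and the value is the treated-group measurement divided by that of the vehicle-treated control group.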

Where [1] appears, read: dose: 60.0 mg/kg/injection, schedule: Q01DX005 (ip), vehicle: saline with Tween-80.
[2] abbreviates: dose: 120.0 mg/kg/injection, schedule: Q01DX005 (ip), vehicle: saline with Tween-80.
[3] abbreviates: dose: 240.0 mg/kg/injection, schedule: Q01DX005 (ip), vehicle: saline with Tween-80.
The mark [4] stands for this setting: dose: 100.0 mg/kg/injection, schedule: Q01DX009 (ip), vehicle: saline with Tween-80.
[5] abbreviates: dose: 100.0 mg/kg/injection, schedule: Q04DX003 (ip), vehicle: saline with Tween-80.
Where [6] appears, read: dose: 200.0 mg/kg/injection, schedule: Q04DX003 (ip), vehicle: saline with Tween-80.
Where [7] appears, read: dose: 400.0 mg/kg/injection, schedule: Q04DX003 (ip), vehicle: saline with Tween-80.
Setting [8] is: dose: 25.0 mg/kg/injection, schedule: Q01DX009 (ip), vehicle: saline with Tween-80.
Where [9] appears, read: dose: 50.0 mg/kg/injection, schedule: Q01DX009 (ip), vehicle: saline with Tween-80.
Where [10] appears, read: dose: 50.0 mg/kg/injection, schedule: Q01DX009 (ip), vehicle: Klucel (hydroxypropylcellulose) (HPC).
Where [11] appears, read: dose: 100.0 mg/kg/injection, schedule: Q01DX009 (ip), vehicle: Klucel (hydroxypropylcellulose) (HPC).
The mark [12] stands for this setting: dose: 200.0 mg/kg/injection, schedule: Q01DX009 (ip), vehicle: Klucel (hydroxypropylcellulose) (HPC).
Where [13] appears, read: dose: 200.0 mg/kg/injection, schedule: Q01DX009 (ip), vehicle: saline with Tween-80.
Where [14] appears, read: dose: 50.0 mg/kg/injection, schedule: Q01DX005 (ip), vehicle: Klucel (hydroxypropylcellulose) (HPC).
The mark [15] stands for this setting: dose: 100.0 mg/kg/injection, schedule: Q01DX005 (ip), vehicle: Klucel (hydroxypropylcellulose) (HPC).
The mark [16] stands for this setting: dose: 200.0 mg/kg/injection, schedule: Q01DX005 (ip), vehicle: Klucel (hydroxypropylcellulose) (HPC).
The mark [17] stands for this setting: dose: 25.0 mg/kg/injection, schedule: Q01DX009 (ip), vehicle: Klucel (hydroxypropylcellulose) (HPC).

“And” between values parts separate entries of the source, which are not always exact repeats. Equal entries are not always repeated. Inconclusive results and toxic doses are left out.

For `O=C(NC1C=Nc2ccc(Cl)cc2NC1=O)c1ccccc1Cl` (centres undefined), the T/C reads like this: under setting [1], 92 % of control; under setting [2], 95 % of control; under setting [3], 100 % of control.
Regarding `COc1cc2c(cc1OC)C(Cc1cc(OC)c(OC)cc1[N+](=O)[O-])=[N+](C)CC2`, the T/C (dose: 25.0 mg/kg/injection, schedule: Q01DX009 (ip), vehicle: other) is 98 % of control; the T/C (dose: 50.0 mg/kg/injection, schedule: Q01DX009 (ip), vehicle: other) was 96 % of control; the T/C (dose: 100.0 mg/kg/injection, schedule: Q01DX009 (ip), vehicle: other) was 102 % of control.
With `CC1=C(CO)C(=O)OC(C(C)C2CCC3C4CC5OC56C(O)C(N5CC5(C)C)CC(=O)C6(C)C4CCC23C)C1` (centres undefined), the T/C (dose: 8.75 mg/kg/injection, schedule: Q01DX005 (ip), vehicle: Klucel (hydroxypropylcellulose) (HPC)) is 108 % of control; the T/C (dose: 17.5 mg/kg/injection, schedule: Q01DX005 (ip), vehicle: Klucel (hydroxypropylcellulose) (HPC)) is 99 % of control; the T/C (dose: 35.0 mg/kg/injection, schedule: Q01DX005 (ip), vehicle: Klucel (hydroxypropylcellulose) (HPC)) is 99 % of control; the T/C (dose: 70.0 mg/kg/injection, schedule: Q01DX005 (ip), vehicle: Klucel (hydroxypropylcellulose) (HPC)) is 108 % of control; the T/C (dose: 140.0 mg/kg/injection, schedule: Q01DX005 (ip), vehicle: Klucel (hydroxypropylcellulose) (HPC)) was 105 % of control.
`O=c1c2ccccc2sc2cccc(Sc3ccccc3)c12`: the T/C under setting [4] is 95 % of control, the T/C under setting [5] is 95 % of control, the T/C under setting [6] was 90 % of control and the T/C under setting [7] is 90 % of control.
`COc1ccc(C(=O)CCc2c(-c3ccccc3)[nH]c3ccccc23)c(O)c1`: the T/C was 107 % of control under setting [1], 100 % of control under setting [2] and 97 % of control under setting [3].
With `COC(=O)C(Cl)c1ccc2c(c1)OCO2` (centres undefined), the T/C by setting is: under setting [8], 100 % of control; under setting [9], 90 % of control; under setting [4], 95 % of control.
For `CNCC(=O)NC(CO)C(=O)NC(CO)C(=O)NC1C(C(N)=O)OC(n2ccc(N)nc2=O)C(O)C1O` (centres undefined), the T/C (dose: 0.1 mg/kg/injection, schedule: Q01DX009 (ip), vehicle: water) is 101 % of control; the T/C (dose: 0.2 mg/kg/injection, schedule: Q01DX009 (ip), vehicle: water) was 100 % of control; the T/C (dose: 0.4 mg/kg/injection, schedule: Q01DX009 (ip), vehicle: water) was 117 % of control; the T/C (dose: 0.8 mg/kg/injection, schedule: Q01DX009 (ip), vehicle: water) is 95 % of control.
For the compound `CCOC(=O)c1ccc(NC(CCN2CCN(CCC(=NC(C)(C)C)Nc3ccc(C(=O)OCC)cc3)CC2)=NC(C)(C)C)cc1`, the T/C is 96 % of control under setting [10], 92 % of control under setting [11] and 90 % of control under setting [12].
For the compound `CSC(=S)n1nc(-c2cccs2)c(N=Nc2ccc([N+](=O)[O-])cc2)c1C(F)(F)F`, the T/C by setting is: under setting [1], 94 % of control; under setting [2], 88 % of control; under setting [3], 97 % of control.
For the compound `O=c1c([N+](=O)[O-])c[nH]c2ccccc12`, the T/C runs as follows: (dose: 25.0 mg/kg/injection, schedule: Q01DX009 (ip), vehicle: distilled water + Tween-80) 92 % of control; (dose: 50.0 mg/kg/injection, schedule: Q01DX009 (ip), vehicle: distilled water + Tween-80) 87 % of control; (dose: 100.0 mg/kg/injection, schedule: Q01DX009 (ip), vehicle: distilled water + Tween-80) 108 % of control; (dose: 200.0 mg/kg/injection, schedule: Q01DX009 (ip), vehicle: distilled water + Tween-80) 93 % of control.
Turning to `CSCOC/C=C(\C)CCC=C(C)C`, the T/C was 98 % of control under setting [9], 100 % of control under setting [4] and 114 % of control under setting [13].
As for `CCOC(=O)N1CCN(C(=O)c2nc3ccccc3[nH]2)CC1`, the T/C under setting [14] is 99 % of control, the T/C under setting [15] was 101 % of control and the T/C under setting [16] is 95 % of control.
`ONC1=Nc2ccccc2OCCOc2ccccc2N=C1NO`: the T/C under setting [14] was 100 % of control, the T/C under setting [15] is 100 % of control and the T/C under setting [16] is 96 % of control.
As to `COc1ccc2cc1Oc1ccc(cc1)CC1c3c(cc(OC)c(OC)c3Oc3cc4c(cc3OC)CCN(C)C4C2)CCN1C` (centres undefined), the T/C by setting is: (dose: 100.0 mg/kg/injection, schedule: Q01DX001 (ip), vehicle: saline with Tween-80) 103 % of control; (dose: 200.0 mg/kg/injection, schedule: Q01DX001 (ip), vehicle: saline with Tween-80) 92 % of control.
As for `CNc1nncc(=O)[nH]1`, the T/C under setting [10] is 107 % of control, the T/C under setting [11] is 107 % of control and the T/C under setting [12] is 99 % of control.
Consider `O=C(/C=C/c1ccc(Cl)c(Cl)c1)c1ccc(Cl)cc1`, for which the T/C (dose: 12.5 mg/kg/injection, schedule: Q01DX009 (ip), vehicle: saline with Tween-80) is 100 % of control; the T/C under setting [8] was 100 % of control; the T/C under setting [9] was 100 % of control.
Take `CN(c1ccccc1)C1C2=C(CCCC2)OC(=O)C12SCCCS2` (centres undefined): the T/C reads like this: (dose: 25.0 mg/kg/injection, schedule: Q04DX003 (ip), vehicle: saline with Tween-80) 94 % of control; (dose: 50.0 mg/kg/injection, schedule: Q04DX003 (ip), vehicle: saline with Tween-80) 96 % of control; under setting [5], 100 % of control and 98 % of control; (dose: 132.0 mg/kg/injection, schedule: Q04DX003 (ip), vehicle: saline with Tween-80) 98 % of control; under setting [6], 106 % of control; (dose: 300.0 mg/kg/injection, schedule: Q04DX003 (ip), vehicle: saline with Tween-80) 119 % of control. The T/C under setting [7] is 105 % of control and 98 % of control.
For `Cc1ccc(S(=O)(=O)N/N=C/c2c(C)noc2C)cc1`, the T/C was 101 % of control under setting [10], 95 % of control under setting [11] and 95 % of control under setting [12].
As for `O=C1C(Cl)=C(NCCO)C(=O)c2ccccc21`, the T/C reads like this: under setting [17], 101 % of control; under setting [10], 106 % of control; under setting [11], 112 % of control; under setting [12], 102 % of control.
In the case of `c1ccc2c(c1)C1CCC2c2ccccc21`, the T/C is, setting by setting: under setting [4], 118 % of control; under setting [13], 104 % of control; (dose: 400.0 mg/kg/injection, schedule: Q01DX009 (ip), vehicle: saline with Tween-80) 118 % of control.
Consider `OC(CNC1CCCCC1)c1ccccc1` (centres undefined), for which the T/C was 98 % of control (dose: 6.25 mg/kg/injection, schedule: Q01DX009 (ip), vehicle: Klucel (hydroxypropylcellulose) (HPC)); 100 % of control (dose: 12.5 mg/kg/injection, schedule: Q01DX009 (ip), vehicle: Klucel (hydroxypropylcellulose) (HPC)); 95 % of control under setting [17]; 109 % of control under setting [10].
`NC(=S)NC(=O)c1cccs1`: the T/C by setting is: under setting [9], 95 % of control; under setting [4], 94 % of control; under setting [13], 93 % of control.
Regarding `O=S(=O)(O)O.[NH-]CCC[NH-].[Pt+2]`, the T/C runs as follows: (dose: 6.25 mg/kg/injection, schedule: Q04DX002 (ip), vehicle: saline) 168 % of control; (dose: 12.5 mg/kg/injection, schedule: Q04DX002 (ip), vehicle: saline) 158 % of control.
Turning to `Cc1cc2nnnn2c2ccccc12`, the T/C by setting is: (dose: 50.0 mg/kg/injection, schedule: Q01DX009 (ip), vehicle: saline) 96 % of control; (dose: 100.0 mg/kg/injection, schedule: Q01DX009 (ip), vehicle: saline) 99 % of control; (dose: 200.0 mg/kg/injection, schedule: Q01DX009 (ip), vehicle: saline) 95 % of control.
Regarding `COc1ccc2c(c1)SC1=NNC(=O)CN12`, the T/C was 89 % of control (dose: 60.0 mg/kg/injection, schedule: Q01DX005 (ip), vehicle: Klucel (hydroxypropylcellulose) (HPC)); 89 % of control (dose: 120.0 mg/kg/injection, schedule: Q01DX005 (ip), vehicle: Klucel (hydroxypropylcellulose) (HPC)); 91 % of control (dose: 240.0 mg/kg/injection, schedule: Q01DX005 (ip), vehicle: Klucel (hydroxypropylcellulose) (HPC)).

(Values after PubChem BioAssay AID330 (DTP/NCI, 2004).)
